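Interpolation was linear, between the two tested concentrations surrounding the appropriate level; five concentrations were tested over 48 hours in 96-well plates. GI50: concentration for 50% inhibition of growth. TGI marks complete inhibition of growth.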
Key:
Assay in all cases: NCI-60 cell line screen, 48 h
[1] = system: K-562 leukemia
[2] = system: NCI-H226 lung
[3] = system: SK-MEL-2 melanoma
[4] = system: RXF 393 renal
[5] = system: A549 NSCLC
[6] = system: SK-OV-3 ovarian
[7] = system: SK-MEL-28 melanoma
[8] = system: MDA-N
[9] = system: 786-0 renal
[10] = system: KM12 colon
[11] = system: UACC-62 melanoma

Compound	TGI [1] [µM]	TGI [2] [µM]	TGI [3] [µM]	TGI [4] [µM]	TGI [5] [µM]	TGI [6] [µM]	TGI [7] [µM]	TGI [8] [µM]	TGI [9] [µM]	TGI [10] [µM]	TGI [11] [µM]	GI50 [2] [µM]	GI50 [3] [µM]	GI50 [4] [µM]	GI50 [11] [µM]	GI50 [5] [µM]	GI50 [6] [µM]	GI50 [7] [µM]	GI50 [10] [µM]
CCOC(=O)C1=CC(C)(C(=O)OCC)Nc2c(nc(N)[nH]c2=O)N1 (stereo not given)	> 10	> 10	> 10	> 10	> 10	> 10	> 10	> 10	> 10	> 10	–	–	–	–	–	–	–	–	–
CC(C)C(N)C(=O)NC(CCC(=O)NCCCCC(N)C(=O)NCCCNc1ccc([N+](=O)[O-])c2[nH]c3ccccc3c(=O)c12)C(N)=O (stereo not given)	> 100	> 100	> 100	46.5	> 100	> 100	> 100	–	> 100	> 100	> 100	–	–	–	–	–	–	–	–
COc1ccc(-n2nc(C)c3c(Nc4ccc(NC(=O)Nc5ccc(Cl)c(C(F)(F)F)c5)cc4)ncnc32)cc1	–	6.08	4.43	2.17	6.31	6.27	3.98	–	–	3.96	3.74	2.21	2.23	0.617	1.78	1.88	2.42	1.8	1.48
O=C(CC(C(=O)c1ccco1)c1ccco1)c1ccco1 (stereo not given)	> 100	> 100	–	> 100	> 100	> 100	> 100	> 100	> 100	> 100	> 100	–	–	–	–	–	–	–	–
O=S1(=O)c2cnccc2NC(=NCc2ccccc2)N1c1ccccc1	> 100	> 100	> 100	> 100	> 100	> 100	> 100	–	> 100	> 100	> 100	–	–	–	–	–	–	–	–
c1ccc2[nH]c(CNc3ccc(C4C[Se]N=N4)cc3)nc2c1 (stereo not given)	> 100	–	> 100	> 100	> 100	> 100	> 100	–	> 100	> 100	99	–	–	–	–	–	–	–	–
CC(=O)Oc1c(C)c(C)c2c(c1C)CCC(C)(CC(=O)OCCCCCCCCCCC[P+](c1ccccc1)(c1ccccc1)c1ccccc1)O2 (stereo not given)	–	25.4	–	–	–	0.932	–	–	–	–	0.982	0.386	–	–	0.291	–	0.264	–	–
O=C1/C(=C/c2cccc([N+](=O)[O-])c2)Sc2scc(-c3ccc([N+](=O)[O-])cc3)[n+]21	–	> 100	70	–	> 100	90.5	62.3	> 100	38.3	33.3	48.5	–	–	–	–	–	–	–	–
Nc1ccc(-c2nn3c(COc4ccc(Cl)cc4)nnc3s2)cc1	> 100	> 100	> 100	> 100	> 100	> 100	> 100	–	> 100	> 100	> 100	7.19	–	–	–	–	–	–	99.5
CCOC(=O)c1c(SCCN2CCOCC2)n(-c2ccccc2)c(=S)n(-c2ccccc2)c1=O	38	> 100	> 100	33.9	> 100	–	53.8	> 100	46	> 100	> 100	–	–	–	–	–	–	–	–
O=C1CS(=O)(=O)C(c2cccc(Oc3ccccc3)c2)N1c1cc(Cl)ccc1Cl (stereo not given)	> 100	41.5	30.2	–	> 100	48.9	70.4	35.1	34.8	39.4	31.9	–	–	–	–	–	–	–	–
CSc1nc2c(ncn2C2OC(CO)C(O)C(O)C2O)c(=O)[nH]1 (stereo not given)	> 100	> 100	> 100	> 100	> 100	> 100	> 100	–	–	> 100	> 100	–	–	–	–	–	–	–	–
O=[N+]([O-])/C(Cl)=C(\NCCN/C(C(Cl)=C(Cl)Cl)=C(/Cl)[N+](=O)[O-])C(Cl)=C(Cl)Cl	> 100	> 100	–	–	> 100	> 100	> 100	> 100	> 100	> 100	> 100	–	–	–	–	–	–	–	–
CC1(C)N=C2C(=O)c3c([nH]c4ccccc34)[C@]3(C)CCC1CC23 (stereo not given in full)	> 6.25	> 6.25	> 6.25	> 6.25	> 6.25	–	> 6.25	> 6.25	> 6.25	> 6.25	–	–	–	–	–	–	–	–	–
C/C(=C\CO)CC/C=C(\C)CNc1ccc([N+](=O)[O-])cc1	66.5	> 100	79.5	> 100	> 100	> 100	> 100	–	> 100	64.2	> 100	–	–	–	–	–	–	–	–
c1ccc2c(c1)CCCC/C2=N/OCC1CO1 (stereo not given)	> 100	90.9	> 100	> 100	> 100	–	> 100	–	–	> 100	–	–	–	–	–	–	–	–	–
CCN(CC)CCO/N=C1\CC[C@H]2[C@@H]3CCc4cc(OC)ccc4[C@H]3CC[C@]12C	2.53	4.69	5.07	3.92	6.96	–	1.28	3.66	3.27	5.86	2.02	–	–	–	–	–	–	–	–
COc1ccc(C2c3cc4c(cc3OC(NCCO)C2C)OCO4)cc1 (stereo not given)	58.8	90.2	50.8	75.2	68.8	87.6	69.1	63.7	–	> 100	> 100	–	–	–	–	–	–	–	–
Nc1ccccc1C(=O)C(Br)C(Br)c1ccc2c(c1)OCO2 (stereo not given)	> 100	52.2	35.2	49.9	57.3	84.4	70.4	–	> 100	33.8	35.2	–	–	–	–	–	–	–	–
COc1cccc2c1OCC1Cc3ccccc3OC21 (stereo not given)	> 100	> 100	> 100	–	> 100	> 100	–	64.8	> 100	> 100	> 100	–	–	–	–	–	–	–	–
Cc1cc(C)nc(NS(=O)(=O)c2ccc(NC(=O)c3cccc4c(NNc5ccc(S(=O)(=O)N=C(N)N)cc5)c5ccccc5nc34)cc2)n1	> 50	> 50	–	> 50	> 50	> 50	–	> 50	> 50	> 50	> 50	–	–	–	–	–	–	–	–
O=C1C2=C(CCC2)Nc2cccc3ncn1c23	> 100	–	> 100	> 100	> 100	> 100	> 100	–	> 100	> 100	> 100	–	–	–	–	–	–	–	–

Compound	TGI [1] [µM]	TGI [2] [µM]	TGI [3] [µM]	TGI [4] [µM]	TGI [5] [µM]	TGI [6] [µM]	TGI [7] [µM]	TGI [8] [µM]	TGI [9] [µM]	TGI [10] [µM]	TGI [11] [µM]	GI50 [2] [µM]	GI50 [3] [µM]	GI50 [4] [µM]	GI50 [11] [µM]	GI50 [5] [µM]	GI50 [6] [µM]	GI50 [7] [µM]	GI50 [10] [µM]
O=C(NN1C(=O)CSC1c1cccc(F)c1)c1ccncc1 (stereo not given)	> 100	–	> 100	> 100	> 100	> 100	> 100	–	–	> 100	> 100	–	–	–	–	–	–	–	–
COc1cc(C(O)c2ccc3c(c2)OCO3)cc(OC)c1OC (stereo not given)	> 100	> 100	> 100	–	> 100	> 100	> 100	> 100	> 100	> 100	> 100	–	–	–	–	–	–	–	–
CN(C)c1cccc2c1C(=O)C=CC21c2ccc(N(C)C)c3c(N(C)C)ccc(c23)C(c2ccccc2)C1c1ccccc1 (stereo not given)	> 100	39.2	–	36.3	71.7	31.8	37.5	37	22.3	31.3	54.7	–	–	–	–	–	–	–	–
CON(C)C(=O)C1CCCO1 (stereo not given)	> 100	> 100	> 100	–	> 100	> 100	> 100	> 100	> 100	> 100	> 100	–	–	–	–	–	–	–	–
CCNc1ncnc2sc(SCc3ccccc3)nc12	> 100	> 100	> 100	> 100	> 100	> 100	> 100	> 100	> 100	> 100	–	–	–	–	–	–	–	–	–
C(=C\c1ccccc1)/COc1ccccc1C(N1CCOCC1)n1nc2ccccc2n1 (stereo not given)	4.26	28.7	24.2	19.4	> 89.2	81.1	32.7	–	15.8	19.8	16.4	–	–	–	–	–	–	–	–
Cc1ccc2oc(=O)c(-c3ccccc3)nc2c1	> 100	> 100	43.8	–	> 100	–	> 100	–	> 100	50.4	–	–	–	–	–	–	–	–	–
O=C(/C=C/c1ccc2c(c1)OCO2)Cc1nc2ccccc2[nH]c1=O	> 100	–	50.7	33.6	62	33.5	61.5	> 100	32.5	> 100	> 100	–	–	–	–	–	–	–	–
COc1cc([N+](=O)[O-])c(OC)c2c(Nc3ccc(S(=O)(=O)O)c4cc(S(=O)(=O)O)cc(S(=O)(=O)O)c34)cc(C)nc12	–	> 100	> 100	> 100	> 100	> 100	> 100	> 100	> 100	> 100	> 100	–	–	–	–	–	–	–	–
O=[N+]([O-])c1ccc2c(c1)c(N=NC(=S)Nc1ccc(Cl)cc1)c(O)n2CN1CCOCC1	–	23.7	26.3	19.9	20.8	26.2	26.6	–	16.7	24	17.7	–	–	–	–	–	–	–	–
N#C/C(=C1\SC(N=Nc2ccc(Cl)cc2)C(=O)N1c1ccccc1)c1nc2ccccc2[nH]1 (stereo not given)	41	77.2	62	67.9	87.3	35.6	> 100	–	26.8	–	> 100	–	–	–	–	–	–	–	–
C=CC(=O)N1C/C(=C\c2ccc(Cl)cc2)C(=O)/C(=C/c2ccc(Cl)cc2)C1	–	3.03	2.85	0.659	1.64	1.71	1.6	0.515	0.55	0.866	1.02	–	–	–	–	–	–	–	–
Cc1cccc(/C(Br)=C2/OC(=O)c3ccccc32)c1	–	–	–	> 100	> 100	> 100	> 100	> 100	> 100	> 100	> 100	–	–	–	–	–	–	–	–
C/C(=N\Nc1nc2ccccc2s1)c1ccc2ccccc2n1	–	–	> 100	73.3	> 100	> 100	> 100	> 100	> 100	> 100	> 100	–	–	–	–	–	–	–	–
COc1ccc([C@H]2C=[N+]([O-])O[C@H](OC3CCCC3)[C@@H]2OC(C)=O)cc1OC	> 100	> 100	> 100	29.8	> 100	> 100	44.2	69.2	–	72.4	77.7	–	–	–	–	–	–	–	–
CN1CCN(C2=C(Cl)C3(OCCS3)C(F)(F)C2(F)F)CC1 (stereo not given)	> 100	> 100	> 100	> 100	> 100	> 100	–	> 100	> 100	–	> 100	–	–	–	–	–	–	–	–
COc1ccc(N2C(=O)C3c4[nH]c5ccccc5c4C4CCCCCCCCCC4C3C2=O)cc1 (stereo not given)	> 10	> 10	> 10	> 10	> 10	> 10	> 10	> 10	–	> 10	> 10	–	–	–	–	–	–	–	–
CCOC(=O)C1CCC(=O)N1C(=O)c1ccccc1Cl (stereo not given)	> 100	> 100	–	> 100	> 100	–	> 100	> 100	> 100	> 100	95.5	–	–	–	–	–	–	–	–
O=C1OC(c2ccccc2)N(C(=O)c2ccccc2)C1Cc1ccc(OCc2ccccc2)cc1 (stereo not given)	> 100	> 100	> 100	–	> 100	> 100	> 100	> 100	> 100	–	> 100	–	–	–	–	–	–	–	–
O=C1C2=Nc3ccccc3C(O)(C(=O)O)N2c2ccccc21 (stereo not given)	> 100	> 100	43.4	> 100	24.6	–	> 100	–	> 100	> 100	–	–	–	–	–	–	–	–	–
COc1ccc(/C=N/n2c(C)nc3c(sc(=S)n3-c3ccccc3)c2=O)cc1	81.2	> 100	–	–	> 100	> 100	> 100	–	–	> 100	> 100	–	–	–	–	–	–	–	–

From PubChem BioAssay (NCI)
